Experimental findings from ChEMBL document CHEMBL3414448, “Advances in the discovery of novel antimicrobials targeting the assembly of bacterial cell division protein FtsZ” (Eur J Med Chem, 2015) are described below.

In general, IC50 refers to the concentration needed to halve the response being measured. One may read the MIC as the smallest concentration in the dilution series that meets the test's criterion for growth inhibition. Higher therefore signals a need for much substance. Usually Kd stands for the equilibrium constant for the complex coming apart. A low value points to a tighter complex.

In experiment [1] the target is T1, Cell division protein FtsZ (Escherichia coli K-12, UniProt P0A9A6).
T1 sequence (P0A9A6 whole entry): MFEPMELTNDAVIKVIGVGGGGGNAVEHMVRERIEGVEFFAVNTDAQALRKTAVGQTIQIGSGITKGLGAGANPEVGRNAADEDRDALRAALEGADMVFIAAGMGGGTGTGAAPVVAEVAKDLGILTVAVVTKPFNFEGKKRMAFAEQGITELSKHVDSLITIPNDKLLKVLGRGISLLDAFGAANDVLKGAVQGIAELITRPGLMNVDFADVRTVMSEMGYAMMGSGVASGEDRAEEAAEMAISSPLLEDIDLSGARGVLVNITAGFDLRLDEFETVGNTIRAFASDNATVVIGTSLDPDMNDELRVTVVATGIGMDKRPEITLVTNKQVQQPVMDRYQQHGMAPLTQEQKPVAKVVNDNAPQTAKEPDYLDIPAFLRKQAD
Description: Inhibition of Escherichia coli FtsZ GTPase activity.

The test system of experiment [2] is Bacillus subtilis. The experiment is described as follows: Antimicrobial activity against Bacillus subtilis. The format is functional.
In experiment [3] the test system is Staphylococcus aureus. Description: Antimicrobial activity against Staphylococcus aureus. In kind it is functional.
In experiment [4] the test system is Staphylococcus aureus. The experiment is described as follows: Antimicrobial activity against Staphylococcus aureus UAMS1. The format is functional.
Experiment [5] has as its system Staphylococcus aureus. Description: Antimicrobial activity against community acquired methicillin-resistant Staphylococcus aureus USA300-LAC. In kind it is functional.
Experiment [6] has as its target T1, Cell division protein FtsZ. The experiment is described as follows: Inhibition of Escherichia coli FtsZ.
For another experiment, the system named is Escherichia coli. The experiment is described as follows: Antimicrobial activity against Escherichia coli. In kind it is functional.
A short description of experiment [7]: Inhibition of FtsZ (unknown origin) assessed as reduction in enzyme GTPase activity.
Experiment [8] concerns Staphylococcus. Description: Antimicrobial activity against Staphylococcus. The format is functional.
For experiment [9], the system named is Staphylococcus aureus. Description: Antimicrobial activity against methicillin-resistant Staphylococcus aureus. The format is functional.
The subject of experiment [10] is Staphylococcus aureus. The experiment is described as follows: Antimicrobial activity against multidrug-resistant Staphylococcus aureus. In kind it is functional.
The next experiment deals with Enterococcus. The experiment is described as follows: Antimicrobial activity against […]-resistant Enterococcus. In kind it is functional.
Experiment [11] deals with Staphylococcus. Description: Antimicrobial activity against Staphylococcus relative to PC190723. In kind it is functional.
The next experiment has as its system Pseudomonas fluorescens. The experiment is described as follows: Antimicrobial activity against Pseudomonas fluorescens. The format is functional.
Experiment [12] has as its system Mycobacterium tuberculosis. Description: Antimicrobial activity against Mycobacterium tuberculosis. The format is functional.
Experiment [13] addresses T2, Cell division protein FtsZ (Mycobacterium tuberculosis, UniProt P9WN95).
T2 sequence (P9WN95 whole entry): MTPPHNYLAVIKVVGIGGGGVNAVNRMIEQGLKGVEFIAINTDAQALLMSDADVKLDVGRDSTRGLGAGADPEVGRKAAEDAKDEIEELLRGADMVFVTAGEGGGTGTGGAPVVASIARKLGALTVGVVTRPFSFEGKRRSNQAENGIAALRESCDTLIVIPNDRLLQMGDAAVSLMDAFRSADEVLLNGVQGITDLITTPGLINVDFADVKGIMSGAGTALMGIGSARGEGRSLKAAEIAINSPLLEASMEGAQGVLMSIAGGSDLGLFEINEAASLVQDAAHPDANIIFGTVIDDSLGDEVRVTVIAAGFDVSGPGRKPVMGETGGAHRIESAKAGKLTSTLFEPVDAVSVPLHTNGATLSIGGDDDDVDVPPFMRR
Description: Binding affinity to Mycobacterium tuberculosis FtsZ.

The test system of experiment [14] is Bacillus subtilis. The experiment is described as follows: Antimicrobial activity against Bacillus subtilis 168. The format is functional.

Each structure is given as a SMILES string. Converted amounts (≈) assume the structure as drawn.

In turn, `O=C1C[C@@H](c2ccccc2)Oc2c(Cc3cc(Cc4ccccc4O)ccc3O)c(O)c(Cc3cc(Cc4ccccc4O)ccc3O)c(O)c21` gave a half-inhibitory concentration (IC50) in experiment [1] of 8.3 µM. The results for the MIC with Bacillus subtilis [2] and against Staphylococcus aureus [3] were 1.77 mg/L (≈ 2.6 µM) and 1.16 mg/L (≈ 1.7 µM), respectively.

As to `Oc1cc(O)cc(C/C(Cl)=C\Cc2cc(O)c(Cl)cc2O)c1`, the minimal inhibitory concentration (MIC) with Staphylococcus aureus [4] and in the experiment on Staphylococcus aureus [5] was 1 mg/L (≈ 2.93 µM) in each case.

On to `CN(C)CCNc1nc(/C=C/c2ccc(Cl)cc2)nc2cc3ccccc3cc12`, for which the IC50 in experiment [6] is 12 µM.

As for `CCC(CC)c1cc([C@H]2CN3CC[C@H]2C[C@@H]3CNCc2ccc(CO)o2)nc(-c2ccncc2)n1`, the MIC came out at 36 mg/L (≈ 75.7 µM) against Escherichia coli and 24 mg/L (≈ 50.5 µM) with Staphylococcus aureus [3]. For the same compound, the half-maximal inhibitory concentration (IC50) in experiment [7] was determined as 73.2 µM.

Take `NC(=O)c1c(F)ccc(OCc2nc3cc(Cl)cnc3s2)c1F`: the MIC in the experiment with Staphylococcus [8] was determined as 0.5 mg/L (≈ 1.41 µM).

Take `Cc1nc(-c2cccs2)cc([C@H]2CN3CC[C@H]2C[C@@H]3CNC(=O)CCCC(=O)O)n1`: the minimum inhibitory concentration (MIC) in the experiment with Escherichia coli is 192 mg/L (≈ 449 µM); in the experiment with Staphylococcus aureus [3], 384 mg/L (≈ 897 µM). Further, the IC50 in [7] was found to be 317 µM.

Turning to `Oc1cc(O)c2c(c1)C/C(Cl)=C\Cc1cc(c(Cl)cc1O)Oc1c(O)cc(cc1O)C/C(Cl)=C\Cc1cc(c(Cl)cc1O)O2`, the figures for the MIC against Staphylococcus aureus [9], against Staphylococcus aureus [10] and against Enterococcus were 1.5 mg/L (≈ 2.21 µM), 1.3 mg/L (≈ 1.92 µM) and 2.9 mg/L (≈ 4.28 µM), respectively.

On to `NC(=O)c1c(F)ccc(O[C@H](CO)c2nc(-c3ccc(C(F)(F)F)cc3)c(Br)o2)c1F`, for which 0.12 mg/L (≈ 0.237 µM) was the least that counted as inhibitory with Staphylococcus [8] (MIC). Moreover, the Ratio in the experiment with Staphylococcus [11] came out at 4.

On to `CCC(CC)c1cc([C@H]2CN3CC[C@H]2C[C@@H]3CNCc2ccco2)nc(-c2ccncc2)n1`, for which the minimal inhibitory concentration (MIC) with Escherichia coli worked out at 72 mg/L (≈ 162 µM); with Staphylococcus aureus [3], 12 mg/L (≈ 26.9 µM). The IC50 in experiment [7] worked out at 55.7 µM.

For the compound `COc1ccc(/N=C/c2ccc(OC(C)=O)c(OC)c2[N+](=O)[O-])cc1`, the MIC with Bacillus subtilis [2], with Escherichia coli, in the experiment on Staphylococcus aureus [3] and in the experiment on Pseudomonas fluorescens was 1.56 mg/L (≈ 4.53 µM) in each case.

`COc1cc(C/C=C(/Cl)Cc2cc(O)cc(O)c2)c(OC)cc1Cl` showed a 50% inhibitory concentration (IC50) in experiment [1] of 37 µM. The MIC in the experiment with Staphylococcus aureus [4] and in the experiment with Staphylococcus aureus [5] was 1 mg/L (≈ 2.71 µM) in each case.

`CC(C)c1c(O)ccc2c1CC[C@H]1C(C)(C)CCC[C@]21C` [TOTAROL]: the minimal inhibitory concentration (MIC) with Escherichia coli was more than 400 mg/L; against Staphylococcus aureus [3], 1.5 mg/L (≈ 5.24 µM); in experiment [12] it was 16 mg/L (≈ 55.9 µM); in the experiment on Bacillus subtilis [14] it was 0.6 mg/L (≈ 2.09 µM). In experiment [13], this compound yielded a dissociation constant (Kd) of 11 µM. For the same compound, in experiment [7], the IC50 stood at 40.8 µM.
